This is an account of results in patent US7838527B2, “Methods of treating cancer and related methods” (Novartis Vaccines and Diagnostics, Inc., priority 2002, dated 2010).

Data set [1] is described as follows: Plasma pharmacokinetics in KM12L4a tumor-bearing mice. It is filed as in vivo. To be noted: 300 mg/kg/day p.o.; Day 18; from 3 concentration-time pairs.
The nature of data set [2]: Compound 1 and metabolite levels in pooled rat plasma, 2 week toxicology study. It is filed as in vivo. To be noted: metabolites estimated by UV; for concentration at 0 h / concentration at 24 h: rat, plasma, po, read-out: Level in Rat Plasma.
Data set [3] in a line: Metabolite profile in monkey plasma, multiple oral dose study. The class given is in vivo. To be noted: for level in plasma: compound 1 5 mg/kg BID oral (10 mg/kg/day), Day 1, metabolite estimated by UV.
Where [4] appears, read: 30 mg/kg, compound 1 30 mg/kg PO once a day, Day 1.
Setting [5] is: 100 mg/kg, compound 1 100 mg/kg PO once a day, Day 1.
The mark [6] stands for this setting: 100 mg/kg, compound 1 100 mg/kg PO once a day, Day 14.

Read-outs that look alike come from different tables or passages of the source.

By AUC is commonly meant concentration integrated over time. Compound `CN1CCN(c2ccc3nc(-c4c(N)c5c(F)cccc5[nH]c4=O)[nH]c3c2)CC1` [Compound 1] registered an AUC in data set [1] of 58400 ng·h/mL. For the same compound, the “% TGI vs. vehicle” value in the data set with PC3 human prostate tumor (100 mpk q 2 days) is on record as 75%; in the data set on PC3 human prostate tumor (100 mpk q 3 days), 68%; in the data set with PC3 human prostate tumor (100 mpk q 4 days), 66%.
Turning to `C[N+]1([O-])CCN(c2ccc3nc(-c4c(N)c5c(F)cccc5[nH]c4=O)[nH]c3c2)CC1` [Compound 2, 4-amino-5-fluoro-3-[6-(4-methyl-4-oxidopiperazin-1-yl)-1H-benzimidazol-2-yl]quinolin-2(1H)-one], the figures for the concentration at 0 h in data set [2] (setting [4]), in data set [2] (setting [5]) and in data set [2] (setting [6]) were 0 ng/mL, 0 ng/mL and 67 ng/mL, respectively. For the same compound, the concentration at 24 h is 137 ng/mL in data set [2] (setting [5]) and 102 ng/mL in data set [2] (setting [6]). Also, the “detection of metabolite in plasma” value in data set [3] (monkey, compound 1 5 mg/kg BID oral, day 1 and 14 samples) is given as “not detected”.
Turning to `Nc1c(-c2nc3ccc(N4CCNCC4)cc3[nH]2)c(=O)[nH]c2cccc(F)c12` [Compound 3, 4-amino-5-fluoro-3-[6-(piperazin-1-yl)-1H-benzimidazol-2-yl]quinolin-2(1H)-one], the “Level in Rat Plasma” value was 14 ng/mL in data set [2] (compound 1 30 mg/kg PO once a day, Day 1, 1-2 hr); 48 ng/mL in data set [2] (compound 1 30 mg/kg PO once a day, Day 1, 4-8 hr); 17 ng/mL in data set [2] (compound 1 100 mg/kg PO once a day, Day 14, 1-2 hr); 19 ng/mL in data set [2] (compound 1 100 mg/kg PO once a day, Day 14, 4-8 hr). Besides, the concentration at 0 h in data set [2] (setting [4]) was 0 ng/mL; in data set [2] (setting [5]) it was 0 ng/mL; in data set [2] (setting [6]), 15 ng/mL. Further, the values for the concentration at 24 h in data set [2] (setting [5]) and in data set [2] (setting [6]) were 83 ng/mL and 10 ng/mL, respectively. Further, the level in plasma was 0 ng/mL in data set [3] (pooled 0 hr); 8.5 ng/mL in data set [3] (pooled 1, 2 hr); 31 ng/mL in data set [3] (pooled 4, 8 hr); 10 ng/mL in data set [3] (pooled 12, 13, 14, 16, 20, 24 hr).
